Measured values reported in patent US20240299496A1, “DRUG FOR TREATING FATTY LIVER AND NONALCOHOLIC STEATOHEPATITIS” (Osaka University, priority 2021, published 2024).
Where no end group is shown, it is not given here.

Test system: NASH model mice (MC4R-KO mice fed a high-fat diet)
Test: Body weight and liver weight of NASH model mice
Type: in vivo, mouse
Settings: 5 mg/kg tail vein injection twice a week for four weeks, t-test
Text: Melanocortin-4 receptor knockout mice (hereinafter also referred to as “MC4R-KO mice,” genetic background: C57BL/6J) were provided by Dr. Joel K Elmquist of University of Texas, Medical Center.
Subsequently, NASH was induced in the mice by feeding a high-fat diet to the MC4R-KO mice, as detailed in the below reference. […] Later, the diet was switched from the normal diet to a high-fat diet (HFD) and the high-fat diet was fed for 20 weeks. Thereby, NASH was developed in the mice. • Itoh M, Suganami T, Nakagawa N, et al. Melanocortin 4 receptor-deficient mice as a novel mouse model of nonalcoholic steatohepatitis. Am J Pathol 2011; 179: 2454-63.
Here, CE-2 (manufactured by CLEA Japan, Inc.) was used as the normal diet, and Western Diet (manufactured by EPS EKISHIN Co., Ltd., containing 0.21% of cholesterol+41% kcal of milk fat) was used as the high-fat diet.
Experiments were carried out by dividing the mice into two groups of an HMGB1 peptide administration group (HMGB1 administration group) and a control group (normal saline; NS administration; CTRL administration group). […]
The mice were euthanized twenty weeks after initiating the high-fat diet, and arterial blood was collected from the heart of the mice. […] In all of the following statistical analyses, significance was calculated by a t-test.

With “MGKGDPKKPRGKMSSYAFFVQTCREEHKKKHPDASVNFSEFSKK [HMGB1 peptide]” the “change of the body weight” value (from initiating administration until completion of breeding, vs control group) was “significant differences were not observed” and the body weight (twenty weeks after initiating high-fat diet, vs control group (normal saline)) was “significant differences were not observed”.
